Tests used:
Assay type in all cases: in vivo
[1] = system: 2nd-instar nymphs of Frankliniella occidentalis Pergande; test: Joint toxicity of I-72 + carbosulfan, leaf spraying, Example 22, Table 22; settings: in Phaseolus vulgaris, 48 h
Description: Test subject: 2nd-instar nymphs of Frankliniella occidentalis Pergande, a sensitive strain reared indoors.
(§1) Preparation of the pesticide solution: according to different test requirements, the test samples in Table 1 were accurately weighed respectively with an electronic analytical balance. The technical pesticides were dissolved in acetone, and then diluted with 0.1% Tween 80 water into a series of pesticide solutions with a certain concentration gradient according to the experimental design dosage.
(§2) Test conditions: temperature: 25-27° C., humidity: RH 60%, and illumination: L:D=14:10
Experimental method: the spraying method was adopted. The kidney bean leaves cultivated in the greenhouse were selected, and the petioles were wrapped with moist degreased cotton and sealing film. They were evenly sprayed with the pesticide solution in the order from low dosage to high dosage according to the experimental design, placed in a 6-cm-diameter Petri dish with filter paper. After natural air-drying in the shade, the test insects were introduced, with 20 insects for each treatment and 3 replicates. In addition, a blank control was set up. […] The corrected mortality rate was calculated using the Abbott's formula, and the DPS data processing software was used for statistical analysis to calculate the toxicities (LC50 values) of the single test pesticides and the mixtures under the test ratios. […]

[2] = system: Frankliniella occidentalis Pergande; test: Joint toxicity of I-72 + organophosphorus insecticides, leaf dipping, Example 14, Table 14; settings: in Phaseolus vulgaris, foliar, 48 h
Description: Test target: Frankliniella occidentalis Pergande, a sensitive strain reared indoors.
(§8) Preparation of the pesticide solution: according to different test requirements, the test samples were accurately weighed respectively with an electronic analytical balance. The technical pesticides were dissolved in acetone, and then diluted with 0.1% Tween 80 water into a series of pesticide solutions with a certain concentration gradient according to the experimental design dosage.
Experimental method: first, kidney bean leaves were selected and dipped in the prepared pesticide solution for 10 s in the order from low dosage to high dosage according to the experimental design. After natural air-drying in the shade, they were placed in a 9-cm-diameter Petri dish with filter paper, and uniform and healthy test insects were introduced, with about 20 insects for each treatment and 3 replicates for each treatment. In addition, a blank control was set up.

[3] = system: 3rd-instar larvae of Chilo suppressalis (Walker); test: Joint toxicity of I-72 + organophosphorus insecticides, rice seedling dipping, Example 15, Table 15; settings: 48 h
Description: Test target: 3rd-instar larvae of Chilo suppressalis (Walker), a sensitive strain reared indoors.
as §1, with “samples” for “samples in Table 1”
(§3) Experimental method: first, tender and fresh rice seedlings were selected and dipped in the prepared pesticide solution for 10 s in the order from low dosage to high dosage according to the experimental design. After natural air-drying in the shade, they were cut into small sections of 5 cm, placed in a 9-cm-diameter Petri dish with filter paper, and uniform and healthy test insects were introduced, with 10 insects for each treatment and 3 replicates for each treatment. In addition, a blank control was set up.
(§4) The treated test materials were placed in an observation room, and the temperature, humidity and illumination of the observation room could be adjusted as needed. The number of dead and live insects was investigated 48 hours later. The corrected mortality rate was calculated using the Abbott's formula, and statistical analysis was performed with the DPS data processing software to obtain the toxicity regression equation, LC50 value and 95% confidence limit of each single test pesticide and each mixture of different ratios. Then, the co-toxicity coefficient of each ratio was calculated using the Sun Y-P method to evaluate the mixing effect (the same as in Example 1).

[4] = system: 3rd-instar larvae of Plutella xylostella; test: Joint toxicity of I-72 + chlorpyrifos, leaf-disk dipping, Example 16, Table 16; settings: in Brassica oleracea, 72 h
Description: Test target: 3rd-instar larvae of Plutella xylostella.
as §1, with “samples” for “samples in Table 1”
as §3, with “first,” for “first, tender and”, “cabbage leaves cultivated in the greenhouse” for “rice seedlings”, “selected. The cabbage leaves were made into circular leaf disks with a diameter of 3 cm using a puncher” for “selected”, “were” for “were cut into small sections of 5 cm,”
(§5) The treated test materials were placed in an observation room, and the temperature, humidity and illumination of the observation room could be adjusted as needed. […] Then, the co-toxicity coefficient of each ratio was calculated using the Sun Y-P method to evaluate the mixing effect (the same as in Example 1).

[5] = system: Aphis gossypii Glover nymphs; test: Joint toxicity of I-72 + organophosphorus insecticides, cotton leaf spraying, Example 17, Table 17; settings: 48 h
Description: Test target: Aphis gossypii Glover nymphs, a sensitive strain reared indoors.
as §1, with “samples” for “samples in Table 1”
(§6) Experimental method: first, cotton leaves with uniform and consistent Aphis gossypii were selected, with about 20 insects on each leaf. Then, they were evenly sprayed with the pesticide solution in the order from low dosage to high dosage according to the experimental design, with 1.5 mL for each leaf and 3 replicates for each treatment. In addition, a blank control was set up.
as §4

[6] = system: Bemisia tabaci (Gennadius) nymphs; test: Joint toxicity of I-72 + organophosphorus insecticides, cotton leaf-disk spraying, Example 18, Table 18; settings: 96 h
Description: Test target: Bemisia tabaci (Gennadius) nymphs.
as §1, with “samples” for “samples in Table 1”
as §6, with “neat” for “uniform”, “Bemisia tabaci (Gennadius) nymphs” for “Aphis gossypii”, “selected and made into leaf disks,” for “selected,”, “leaf disk.” for “leaf.”
as §4, with “96” for “48”

[7] = system: adult Phyllotreta spp.; test: Joint toxicity of I-72 + organophosphorus insecticides, cabbage seedling spraying, Example 19, Table 19; settings: 72 h
Description: Test target: adult Phyllotreta spp., a sensitive strain reared indoors.
as §1, with “samples” for “samples in Table 1”
Experimental method: first, fresh cabbage seedlings cultivated in the greenhouse were selected and evenly sprayed with the pesticide solution in the order from low dosage to high dosage according to the experimental design. After natural air-drying in the shade, they were covered with a glass cover, and uniform and healthy test insects were introduced, with 10 insects for each treatment and 3 replicates for each treatment. In addition, a blank control was set up.
as §4, with “72” for “48”

[8] = system: 3rd-instar larvae of Hyphantria cunea; test: Joint toxicity of I-72 + organophosphorus insecticides, poplar leaf dipping, Example 20, Table 20; settings: foliar, 72 h
Description: Test target: 3rd-instar larvae of Hyphantria cunea, a sensitive strain reared indoors.
as §8
Experimental method: first, fresh and tender poplar leaves were selected, cut into small sections of 5 cm, and dipped in the prepared pesticide solution for 10 s in the order from low dosage to high dosage according to the experimental design. After natural air-drying in the shade, they were placed in a 9-cm-diameter Petri dish with filter paper, and uniform and healthy test insects were introduced, with 10 insects for each treatment and 3 replicates for each treatment. In addition, a blank control was set up.
The treated test materials were placed in an observation room, and the temperature, humidity and illumination of the observation room could be adjusted as needed. The number of dead and live insects was investigated 72 hours later.

[9] = system: 3rd-instar larvae of Ostrinia furnacalis Guenee; test: Joint toxicity of I-72 + organophosphorus insecticides, corn stalk dipping, Example 21, Table 21; settings: 48 h
Description: Test target: 3rd-instar larvae of Ostrinia furnacalis Guenee, a sensitive strain reared indoors.
as §1, with “samples” for “samples in Table 1”
as §3, with “first, fresh” for “first,”, “corn stalks cultivated in the greenhouse” for “and fresh rice seedlings”, “selected, cut into small sections of 3 cm,” for “selected”, “were” for “were cut into small sections of 5 cm,”
as §4

[10] = system: Pyrrhalta aenescens; test: Joint toxicity of I-72 + fenobucarb, insect-dipping, Example 24, Table 24; settings: 24 h
Description: Test target: Pyrrhalta aenescens, a strain reared indoors.
Experimental method: the insect-dipping method was adopted. Pyrrhalta aenescens of the same size were selected, put into an insect-dipping cage, and evenly […] the pesticide solution in the order from low dosage to high dosage according to the experimental design, with dipping for 10 s for each treatment. They were placed in a 9-cm-diameter Petri dish with filter paper. After natural air-drying in the shade, feed was added, with 3 replicates for each treatment. In addition, a blank control was set up.
The treated test materials were placed in an observation room. The total number of test insects and the number of dead insects were investigated 24 hours later. The temperature, humidity and illumination of the observation room could be adjusted as needed. The test conditions, the preparation of the pesticide solution and the evaluation method were the same as those in Example 1.

[11] = system: adult Tetranychus cinnabarinus (Boisduval); test: Joint toxicity of I-72 + spirodiclofen, potted-seedling spraying, Example 25, Table 25; settings: A = compound I-72, B = spirodiclofen, 72 hours
Description: Test target: adult Tetranychus cinnabarinus (Boisduval), a sensitive strain reared indoors.
as §1, with “samples” for “samples in Table 1”
Experimental method: the activity of the mixture against the adult Tetranychus cinnabarinus (Boisduval) was determined by adopting the potted-seedling spraying method. First, the adult Tetranychus cinnabarinus of uniform size were transferred onto the leaves of kidney bean seedlings at the stage when the first pair of true leaves was fully expanded. After the adult mites had stabilized, the base number was counted. Then, the uniform spraying was performed with the pesticide solution in the order from low to high dose according to the experimental design, with 1.5 mL for each seedling and 3 replicates for each treatment. […]
as §5, with “effect,” for “effect (the same”, “1.” for “1).”

[12] = system: Bemisia tabaci (Gennadius) nymphs; test: Joint toxicity of I-72 + spiromesifen, Example 27, Table 27; settings: A = compound I-72, B = spiromesifen; cotton leaf-disk spraying; 96 hours
Description: Test target: Bemisia tabaci (Gennadius) nymphs, a sensitive strain reared indoors.
as §1, with “samples” for “samples in Table 1”
as §6, with “neat” for “uniform”, “Bemisia tabaci (Gennadius) nymphs” for “Aphis gossypii”, “selected and made into leaf disks,” for “selected,”, “leaf disk.” for “leaf.”
as §5, with “needed. The number of dead and live insects was investigated 96 hours later.” for “needed.”

[13] = system: 3rd-instar larvae of Pyrausta nubilalis Hubern; test: Synergism assay (Bliss) of I-72 + abamectin, spinosad, spinetoram, emamectin benzoate, Example 6, Table 6; settings: 72 h
Description: Test subject: 3rd-instar larvae of Pyrausta nubilalis Hubern, a sensitive strain reared indoors.
Test conditions: temperature: 24-26° C., humidity: RH 60%, and illumination: L:D=14:10
(§7) Preparation method: the test pesticides were accurately weighed respectively with an electronic analytical balance. After the two technical materials were respectively added into an appropriate amount of solvent and completely dissolved, the stock solution of the required concentration was prepared with water containing 0.1% Tween 80. The stock solutions of the two active ingredients were mixed in a certain ratio to prepare a mixed solution, which was then diluted respectively into a series of pesticide solutions with a certain concentration gradient according to the experimental design dosage.
Experimental method: the artificial diet-pesticide film method was adopted. A standard clean 24-well culture plate was selected. 1 ml of artificial diet was added to each well. After the diet cooled and solidified, a quantitative amount of a pesticide solution was added to the culture plate using a continuous sampler, and then it was air-dried naturally in the shade. The standard test insects were introduced, with 1 insect in each well, a total of 48 insects. The treated test insects were placed in an observation room under certain conditions. The reaction of the test insects was regularly observed, and the number of dead and live insects was investigated 72 h later.
The evaluation method adopted was the Bliss method. This method is applicable to the qualitative screening of insecticidal compositions. According to the concept of independent joint action he proposed, Bliss believes that the theoretical mortality rate P when insecticides are used in combination can be calculated by the following formula: […]
Pm is the mortality rate (%) of the target when the first active ingredient is at a concentration of m; and Pn is the mortality rate (%) of the target when the second active ingredient is at a concentration of n.
If the actual mortality rate of the target after the two active ingredients are mixed at a certain concentration is greater than theoretical mortality rate P, it is determined that the two active ingredients have a synergistic effect when used in combination at the set concentration, and otherwise, they have an antagonistic effect.

[14] = system: 2nd-instar larvae of Chilo suppressalis (Walker); test: Joint toxicity of I-72 + abamectin, rice stalk spraying, Example 7, Table 7; settings: resistant 2nd-instar larvae, 72 h, A = compound I-72, B = abamectin
Description: Test target: 2nd-instar larvae of Chilo suppressalis (Walker). The insect source was collected from Nanchang, Jiangxi Province, and it is the 11th generation continuously cultured indoors, with a relatively high resistance level to amide pesticides such as chlorantraniliprole.
as §2, §7
Experimental method: the spraying method was adopted. […] The corrected mortality rate was calculated using the Abbott's formula, and the DPS data processing software was used for statistical analysis to calculate the toxicities (LC50 values) of the single test pesticides and the mixtures under the test ratios. […]

[15] = system: adult Bemisia tabaci (Gennadius); test: Joint toxicity of I-72 + abamectin, seedling spraying, Example 13, Table 13; settings: adults, kidney bean seedling spraying, 72 h; A = compound I-72, B = abamectin
Excerpt: Test subject: adult Bemisia tabaci (Gennadius), a sensitive strain reared indoors.
Experimental method: the spraying method was adopted. The kidney bean seedlings cultivated in the greenhouse were selected and evenly sprayed with the pesticide solution in the order from low dosage to high dosage according to the experimental design. After natural air-drying in the shade, a self-made glass cover was put on, and the test insects were introduced, with 20-30 insects for each treatment and 3 replicates. In addition, a blank control was set up. The number of dead and live insects was investigated 72 hours later. The corrected mortality rate was calculated using the Abbott's formula, and the DPS data processing software was used for statistical analysis to calculate the toxicities (LC50 values) of the single test pesticides and the mixtures under the test ratios.
The test conditions, the preparation of the pesticide solution and the evaluation method were the same as those in Example 1.
The test subject, the test method, the test conditions, the preparation of the pesticide solution and the evaluation method were the same as those in Example 12.

CCCCN(CCCC)SN(C)C(=O)Oc1cccc2c1OC(C)(C)C2 [carbosulfan, reference compound]
LC50 [1]: 43.2 µg/mL

CCOP(=S)(OCC)Oc1nc(Cl)c(Cl)cc1Cl [chlorpyrifos]
LC50 [2]: 4.6 µg/mL
LC50 [3]: 1.96 µg/mL
LC50 [4]: 13.7 µg/mL
LC50 [5]: 4.16 µg/mL
LC50 [6]: 12.1 µg/mL
LC50 [7]: 40.4 µg/mL
LC50 [8]: 5.24 µg/mL
LC50 [9]: 5.18 µg/mL

CCC(C)c1ccccc1OC(=O)NC (stereo not drawn) [fenobucarb]
LC50 [10]: 37.2 µg/mL

CCC(C)(C)C(=O)OC1=C(c2ccc(Cl)cc2Cl)C(=O)OC12CCCCC2 [spirodiclofen]
LC50 [11]: 14.5033 µg/mL

Cc1cc(C)c(C2=C(OC(=O)CC(C)(C)C)C3(CCCC3)OC2=O)c(C)c1 [spiromesifen]
LC50 [12]: 10.6291 µg/mL

abamectin
Mortality rate (%) ([13]; single agent 0.1 mg/L): 10.42%
Mortality rate (%) ([13]; single agent 1 mg/L): 58.33%
Mortality rate (%) ([13]; single agent 2 mg/L): 75.00%
Mortality rate (%) ([13]; single agent 5 mg/L): 85.42%
LC50 [14]: 8.0355 µg/mL
LC50 [15]: 2.2263 µg/mL

From patent US20260198495A1, “BINARY INSECTICIDE COMPOSITION AND USE THEREOF” (SHENYANG SINOCHEM AGROCHEMICALS R & D CO., LTD., priority 2022, published 2026)
